Laboratory results as given in PMC8468039, “Development of New Meridianin/Leucettine-Derived Hybrid Small Molecules as Nanomolar Multi-Kinase Inhibitors with Antitumor Activity” (Biomedicines, 2021).

Legend:
DAPK1 = biological target: T1, DAPK1 (Homo sapiens, UniProt P53355); test: In vitro kinase inhibition assay (HotSpot, Reaction Biology); assay type: biochemical; settings: single dose of 10 µM; read-out: Percent Inhibition, DAPK1
T1 construct: purchased Reaction Biology Corp
Method: (§1) The in vitro kinase inhibition assay was carried out by Reaction Biology Corp. (Reaction Biology Corp., Chester, PA, USA) Kinase HotSpot^SM service (http://www.reactionbiology.com, accessed on 15 January 2021), following the previously reported methods. (For details, see Supplementary Material).
(§2) As mentioned in the introduction, to get insights about the kinase inhibition profile of the hybrid small molecule 5a, an in vitro screening over a panel of 14 cancer-related kinases was carried out. Accordingly, 10 µM concentrations of compound 5a were used in a kinase inhibition assay over various kinase groups and families in the presence of 10 µM ATP using HotSpotSM technology. To get a comprehensive picture of the inhibitory activities of the tested compound (5a) against the kinase panel, data are illustrated in Table 1. […] Compound 5a was also able to suppress the kinase activity of the epidermal growth factor receptor (EGFR), platelet-derived growth factor receptor-alpha (PDGFRα), and cyclin-dependent kinase 2 (CDK2) with modest inhibition values of 26.99 ± 0.9, 24.0 ± 0.4, and 20.1 ± 0.1%, respectively. […] Several studies have confirmed direct relationships between the most affected kinases (FMS, LCK, LYN, and DAPK1) and different human disorders including cancer.
(§3) 5. Protocol of Kinase assay
(§4) Kinases inhibitory activities were assessed by the HotSpot assay platform, which contained specific kinase/substrate pairs along with required cofactors. Base reaction buffer: 20 mM Hepes (pH 7.5), 10 mM MgCl2, 1 mM EGTA, 0.02% Brij35, 0.02 mg/ml BSA, 0.1 mM Na3VO4, 2 mM DTT, 1% DMSO. Testing compounds were dissolved in 100% DMSO to specific concentration. The serial dilution was conducted by Integra Viaflo Assist in DMSO. The reaction mixture containing the examined compound and 33P-ATP was incubated at room temperature for 2h and radioactivity was detected by filter-binding method. Kinase activity data were expressed as the percent remaining kinase activity in test samples compared to vehicle (dimethyl sulfoxide) reactions. IC50 values and curve fits were obtained using Prism (GraphPad Software).
(§5) 6. Biology raw data for IC50 determination
(§6) Paper ID Cpd ID NSC Number

LYN = biological target: T2, LYN (Homo sapiens, UniProt P07948); test: as above; assay type: biochemical; settings: single dose of 10 µM; 10 µM ATP as printed; read-out: Percent Inhibition, LYN
T2 construct: purchased Reaction Biology Corp
T2 sequence (P07948 whole entry): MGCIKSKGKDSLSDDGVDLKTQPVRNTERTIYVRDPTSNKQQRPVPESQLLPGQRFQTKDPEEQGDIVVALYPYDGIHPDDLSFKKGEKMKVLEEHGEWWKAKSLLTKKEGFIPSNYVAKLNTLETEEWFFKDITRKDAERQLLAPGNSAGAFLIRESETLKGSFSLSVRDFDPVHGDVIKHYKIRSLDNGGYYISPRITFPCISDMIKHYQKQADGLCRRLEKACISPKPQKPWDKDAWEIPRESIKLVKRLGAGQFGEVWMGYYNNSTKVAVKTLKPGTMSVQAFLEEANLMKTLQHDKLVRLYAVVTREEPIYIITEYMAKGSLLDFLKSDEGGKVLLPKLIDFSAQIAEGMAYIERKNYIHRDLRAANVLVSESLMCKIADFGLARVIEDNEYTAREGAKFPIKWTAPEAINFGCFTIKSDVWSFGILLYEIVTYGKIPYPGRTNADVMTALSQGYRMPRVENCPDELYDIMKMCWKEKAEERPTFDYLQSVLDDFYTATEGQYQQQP
Method: as §1, §2, §3, §4, §5, §6

LCK = biological target: T3, LCK (Homo sapiens, UniProt P06239); test: as above; assay type: biochemical; settings: single dose of 10 µM; 10 µM ATP as printed; read-out: Percent Inhibition, LCK
T3 construct: purchased Reaction Biology Corp
T3 sequence (P06239 whole entry): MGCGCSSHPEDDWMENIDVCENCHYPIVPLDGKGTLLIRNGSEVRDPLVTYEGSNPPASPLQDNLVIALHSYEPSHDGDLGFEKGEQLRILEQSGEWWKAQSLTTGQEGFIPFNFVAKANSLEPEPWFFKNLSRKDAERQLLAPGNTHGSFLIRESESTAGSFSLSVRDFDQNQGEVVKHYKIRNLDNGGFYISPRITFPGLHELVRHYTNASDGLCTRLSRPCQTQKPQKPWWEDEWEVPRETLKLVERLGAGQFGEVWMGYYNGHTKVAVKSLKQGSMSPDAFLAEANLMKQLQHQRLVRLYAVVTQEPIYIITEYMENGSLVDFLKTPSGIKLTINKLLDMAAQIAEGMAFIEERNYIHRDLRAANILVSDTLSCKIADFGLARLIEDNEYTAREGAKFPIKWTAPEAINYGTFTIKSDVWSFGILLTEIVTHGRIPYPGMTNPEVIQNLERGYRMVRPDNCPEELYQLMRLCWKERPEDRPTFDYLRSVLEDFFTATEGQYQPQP
Method: as §1, §2, §3, §4, §5, §6

IGROV1 = test: NCI growth inhibition (SRB) assay; assay type: cell-based; settings: Homo sapiens, IGROV-1, IGROV1, Ovarian Cancer, single dose 10 µM, 48 h, read-out: Percent Growth Inhibition (GI)
Method: (§7) The antitumor assay was performed according to the protocol of the Drug Evaluation Branch, NCI, Bethesda. A 48 h drug exposure protocol was adopted, and sulforhodamine B (SRB) assay was utilized to assess the cell growth and viability, as reported earlier.
(§8) The inhibition results of tumor cell growth by the newly synthesized compounds (5a–5g) are described in Table 4. The reported measurements have been performed at the NIH National Cancer Institute, USA by a standardized assay including a panel of 60 different tumor cell lines (Supplementary Data). The following cancer cell types were included in these assays: Leukemia, non-small cell lung cancer, colon cancer, CNS cancer, melanoma, ovarian cancer, renal cancer, prostate, and breast cancer. […] Additionally, the 3,4-dimethoxy substituted compound (5b) also suffered poor activity against the cancer cell lines.

SR = test: NCI growth inhibition (SRB) assay; assay type: cell-based; settings: Homo sapiens, Leukemia, single dose 10 µM, 48 h, read-out: Percent Growth Inhibition (GI)
Method: as §7, §8

MCF7 = test: NCI growth inhibition (SRB) assay; assay type: cell-based; settings: Homo sapiens, MCF7, Breast Cancer, single dose 10 µM, 48 h, read-out: Percent Growth Inhibition (GI)
Method: as §7, §8

HT29 = test: NCI growth inhibition (SRB) assay; assay type: cell-based; settings: Homo sapiens, HT-29, HT29, Colon Cancer, single dose 10 µM, 48 h, read-out: Percent Growth Inhibition (GI)
Method: as §7, §8

A498 = test: NCI growth inhibition (SRB) assay; assay type: cell-based; settings: Homo sapiens, A498, Renal Cancer, single dose 10 µM, 48 h, read-out: Percent Growth Inhibition (GI)
Method: as §7, §8

RPMI-8226 = test: NCI growth inhibition (SRB) assay; assay type: cell-based; settings: Homo sapiens, RPMI-8226, Leukemia, single dose 10 µM, 48 h, read-out: Percent Growth Inhibition (GI)
Method: as §7, §8

K-562 = test: NCI growth inhibition (SRB) assay; assay type: cell-based; settings: Homo sapiens, K562, K-562, Leukemia, single dose 10 µM, 48 h, read-out: Percent Growth Inhibition (GI)
Method: as §7, §8

HS 578T = test: NCI growth inhibition (SRB) assay; assay type: cell-based; settings: Homo sapiens, Breast Cancer, single dose 10 µM, 48 h, read-out: Percent Growth Inhibition (GI)
Method: as §7, §8

ACHN = test: NCI growth inhibition (SRB) assay; assay type: cell-based; settings: Homo sapiens, Renal Cancer, single dose 10 µM, 48 h, read-out: Percent Growth Inhibition (GI)
Method: as §7, §8

PC-3 = test: NCI growth inhibition (SRB) assay; assay type: cell-based; settings: Homo sapiens, PC-3, Prostate Cancer, single dose 10 µM, 48 h, read-out: Percent Growth Inhibition (GI)
Method: as §7, §8

HCT-15 = test: NCI growth inhibition (SRB) assay; assay type: cell-based; settings: Homo sapiens, HCT-15, Colon Cancer, single dose 10 µM, 48 h, read-out: Percent Growth Inhibition (GI)
Method: as §7, §8

CAKI-1 = test: NCI growth inhibition (SRB) assay; assay type: cell-based; settings: Homo sapiens, CAKI-1, Renal Cancer, single dose 10 µM, 48 h, read-out: Percent Growth Inhibition (GI)
Method: as §7, §8

HL-60(TB) = test: NCI growth inhibition (SRB) assay; assay type: cell-based; settings: Homo sapiens, Leukemia, single dose 10 µM, 48 h, read-out: Percent Growth Inhibition (GI)
Method: as §7, §8

UACC-62 = test: NCI growth inhibition (SRB) assay; assay type: cell-based; settings: Homo sapiens, UACC-62, Melanoma, single dose 10 µM, 48 h, read-out: Percent Growth Inhibition (GI)
Method: as §7, §8

CCRF-CEM = test: NCI growth inhibition (SRB) assay; assay type: cell-based; settings: Homo sapiens, Leukemia, single dose 10 µM, 48 h, read-out: Percent Growth Inhibition (GI)
Method: as §7, §8

RXF 393 = test: NCI growth inhibition (SRB) assay; assay type: cell-based; settings: Homo sapiens, RXF 393, Renal Cancer, single dose 10 µM, 48 h, read-out: Percent Growth Inhibition (GI)
Method: as §7, §8

FMS = biological target: T4, FMS (Homo sapiens, UniProt P07333); test: In vitro kinase inhibition assay (HotSpot, Reaction Biology); assay type: biochemical; settings: for inhibition at 10 µM: single dose of 10 µM, 10 µM ATP as printed, read-out: Percent Inhibition, FMS
T4 construct: purchased Reaction Biology Corp
T4 sequence (P07333 20-972): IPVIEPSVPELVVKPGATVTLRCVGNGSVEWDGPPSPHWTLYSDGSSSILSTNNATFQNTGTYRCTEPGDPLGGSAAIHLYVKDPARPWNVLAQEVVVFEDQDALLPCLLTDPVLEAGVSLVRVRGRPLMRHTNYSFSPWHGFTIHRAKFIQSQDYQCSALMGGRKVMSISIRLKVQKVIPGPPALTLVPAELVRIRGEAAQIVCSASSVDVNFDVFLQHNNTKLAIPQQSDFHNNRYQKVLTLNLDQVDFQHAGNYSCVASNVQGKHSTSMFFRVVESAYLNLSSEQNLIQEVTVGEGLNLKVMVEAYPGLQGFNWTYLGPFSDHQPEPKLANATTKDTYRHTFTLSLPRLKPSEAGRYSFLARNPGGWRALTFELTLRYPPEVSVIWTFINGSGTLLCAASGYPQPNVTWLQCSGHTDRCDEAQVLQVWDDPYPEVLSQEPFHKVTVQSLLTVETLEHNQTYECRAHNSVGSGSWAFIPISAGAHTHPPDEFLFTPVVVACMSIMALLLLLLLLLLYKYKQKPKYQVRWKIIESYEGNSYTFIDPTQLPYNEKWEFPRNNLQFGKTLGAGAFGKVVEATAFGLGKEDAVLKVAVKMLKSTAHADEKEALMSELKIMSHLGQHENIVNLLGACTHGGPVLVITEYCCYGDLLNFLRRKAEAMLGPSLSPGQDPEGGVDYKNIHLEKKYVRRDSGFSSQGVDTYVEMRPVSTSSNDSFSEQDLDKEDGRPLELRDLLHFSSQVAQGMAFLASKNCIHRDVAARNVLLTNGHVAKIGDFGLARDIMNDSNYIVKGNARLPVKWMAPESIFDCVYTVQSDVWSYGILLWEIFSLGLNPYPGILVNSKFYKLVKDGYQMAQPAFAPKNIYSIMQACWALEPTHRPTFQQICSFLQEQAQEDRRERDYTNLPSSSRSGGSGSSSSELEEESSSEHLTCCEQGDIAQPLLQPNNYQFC
Method: as §1, §2, §3, §4

T1 sequence (P53355 whole entry): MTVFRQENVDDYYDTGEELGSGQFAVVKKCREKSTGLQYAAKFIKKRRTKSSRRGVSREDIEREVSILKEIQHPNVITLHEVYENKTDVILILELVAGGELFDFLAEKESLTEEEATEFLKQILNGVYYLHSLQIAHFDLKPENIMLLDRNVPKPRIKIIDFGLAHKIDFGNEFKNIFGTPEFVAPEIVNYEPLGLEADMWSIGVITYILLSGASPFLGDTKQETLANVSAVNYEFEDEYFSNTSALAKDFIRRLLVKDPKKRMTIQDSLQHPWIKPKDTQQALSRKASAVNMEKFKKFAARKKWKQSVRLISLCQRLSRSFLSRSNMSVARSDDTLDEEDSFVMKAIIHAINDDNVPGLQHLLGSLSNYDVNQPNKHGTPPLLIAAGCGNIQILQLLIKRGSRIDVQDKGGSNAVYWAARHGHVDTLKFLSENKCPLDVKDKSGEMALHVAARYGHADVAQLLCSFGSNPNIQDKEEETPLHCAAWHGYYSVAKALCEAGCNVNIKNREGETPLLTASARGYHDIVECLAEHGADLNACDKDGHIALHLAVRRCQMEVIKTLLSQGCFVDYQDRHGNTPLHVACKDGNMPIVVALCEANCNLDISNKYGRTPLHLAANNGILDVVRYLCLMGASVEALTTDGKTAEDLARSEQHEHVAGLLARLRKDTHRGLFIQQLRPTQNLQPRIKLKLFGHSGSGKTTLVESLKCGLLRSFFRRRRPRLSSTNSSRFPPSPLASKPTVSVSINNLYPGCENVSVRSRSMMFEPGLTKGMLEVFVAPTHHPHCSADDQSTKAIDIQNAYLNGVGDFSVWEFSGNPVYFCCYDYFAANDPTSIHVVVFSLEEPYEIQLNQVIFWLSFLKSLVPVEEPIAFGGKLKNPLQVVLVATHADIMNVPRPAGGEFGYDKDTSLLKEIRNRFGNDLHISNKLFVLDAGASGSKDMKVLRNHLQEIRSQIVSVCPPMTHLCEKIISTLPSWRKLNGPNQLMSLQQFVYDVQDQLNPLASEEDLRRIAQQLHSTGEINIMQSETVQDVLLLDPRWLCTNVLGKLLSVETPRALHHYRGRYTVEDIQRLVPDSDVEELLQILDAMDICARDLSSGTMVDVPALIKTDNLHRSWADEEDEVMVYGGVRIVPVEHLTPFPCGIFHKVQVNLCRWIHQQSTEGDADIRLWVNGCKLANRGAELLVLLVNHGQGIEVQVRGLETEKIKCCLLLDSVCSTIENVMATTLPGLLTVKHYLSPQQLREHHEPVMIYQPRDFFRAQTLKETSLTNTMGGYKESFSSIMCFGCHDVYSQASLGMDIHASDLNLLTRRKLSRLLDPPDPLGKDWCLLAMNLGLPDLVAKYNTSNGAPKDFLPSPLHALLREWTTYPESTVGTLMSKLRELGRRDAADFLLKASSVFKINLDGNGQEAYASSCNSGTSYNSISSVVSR

Row | SMILES | inhibition at 10 µM (DAPK1) [%] | inhibition at 10 µM (LYN) [%] | inhibition at 10 µM (LCK) [%] | inhibition at 10 µM (IGROV1) [%] | inhibition at 10 µM (SR) [%] | inhibition at 10 µM (MCF7) [%] | inhibition at 10 µM (HT29) [%] | inhibition at 10 µM (A498) [%] | inhibition at 10 µM (RPMI-8226) [%] | inhibition at 10 µM (K-562) [%] | inhibition at 10 µM (HS 578T) [%] | inhibition at 10 µM (ACHN) [%] | inhibition at 10 µM (PC-3) [%] | inhibition at 10 µM (HCT-15) [%] | inhibition at 10 µM (CAKI-1) [%] | inhibition at 10 µM (HL-60(TB)) [%] | inhibition at 10 µM (UACC-62) [%] | inhibition at 10 µM (CCRF-CEM) [%] | inhibition at 10 µM (RXF 393) [%] | inhibition at 10 µM (FMS) [%] | other results
1 | COc1ccc(Oc2nc(Nc3ccc(N4CCOCC4)cc3)ncc2NC(=O)Cc2cc(OC)cc(OC)c2)cc1 [5e, 2-(3,5-Dimethoxyphenyl)-N-(4-(4-methoxyphenoxy)-2-((4-morpholinophenyl)amino)pyrimidin-5-yl)acetamide] | 47.1 ± 0.7 | 7.9 ± 0.4 | 39.5 ± 0.4 | -9.02 | 13.2 | 18.9 | -8.47 | -6.85 | 11.3 | 2.31 | 1.64 | -0.26 | 8.05 | 1.13 | -2.58 | -6.34 | 1.34 | -4.73 | -8.16 | 75.5 ± 0.8 | 
2 | COc1ccc(Oc2nc(Nc3ccc(N4CCOCC4)cc3)ncc2NC(=O)c2ccc(OC)c(OC)c2)cc1 [5b, 3,4-Dimethoxy-N-(4-(4-methoxyphenoxy)-2-((4-morpholinophenyl)amino)pyrimidin-5-yl)benzamide] | 65 ± 1.2 | 36.9 ± 4.5 | 62.3 ± 0.8 | 3.6 | 18.8 | 4.24 | -2.93 | -5.56 | 11.1 | 8.76 | 5.09 | -7.28 | 0.75 | 12.3 | 20.6 | 16.4 | 0.1 | 5.37 | 20.4 | 44.1 ± 0.2 | 
3 | CCOc1cc(OCC)cc(C(=O)Nc2cnc(Nc3ccc(N4CCOCC4)cc3)nc2Oc2ccc(OC)cc2)c1 [5d, 3,5-Diethoxy-N-(4-(4-methoxyphenoxy)-2-((4-morpholinophenyl)amino)pyrimidin-5-yl)benzamide] | 51.6 ± 0.5 | 31.5 ± 5.8 | 38.3 ± 4.2 | 0.72 | 33.2 | 14.4 | 9.54 | 17.9 | 25.6 | 30.7 | 7.96 | 20.4 | 27.3 | 13.2 | 20.6 | 22.8 | 12 | 26.1 | 27.5 | 95.1 ± 0.3 | IC50 (FMS; 10-dose, 3-fold serial dilution starting at 100 μM): 213 ± 1 nM; fold more potent than imatinib over FMS (FMS; from IC50 values): ~5 fold
